Measured values as given in patent publication US20040235027A1, “Preparation and application of ligand-biopolymer conjugates” (Regent of the University of California, priority 2003, published 2004).

Experiments:
Assay type in all cases: binding
[1] = system: murine anti-PDC monoclonal antibody 2H4; experiment: xenobiotic-peptide-agarose microarray, reactivity of mAb 2H4; details: xenobiotic or lipoic acid coupled to PDC peptide-agarose
Source text: Synthesis of mimeotopes and coupling with peptide-agarose conjugate. Carboxylic acid derivatives of twenty-three xenobiotic compounds were used in this study. Compounds 1-19 were synthesized as described in Long, S. A. et al. J. Immunol. 2001, 167:2956 which is herein incorporated by reference in its entirety. The carboxylic acid derivatives are then reacted with NHS to form the corresponding NHS esters. These 23 compounds, in addition to lipoic acid with NHS ester, were coupled to the lysine residue on the PDC-E2 peptide-agarose conjugate as follows. Briefly, 0.4 mg of the PDC-E2 peptide-agarose conjugate and 10 μmol of each of the NHS esters were mixed in 40 μl of DMSO. Mixtures were incubated at room temperature for 2 hours. To ensure complete coupling, a quantitative ninhydrin test at 570 nm was performed.
(§1) Preparation of microarray and analysis of immunoreactivity. Xenobiotic compounds-peptide-agarose mixture were diluted (0.1%) in 0.1 M Na2CO3/NaHCO3 buffer (p)H 9.0), and transferred to 96 well plates. Thereafter mixtures were spotted onto glass slides (Mercedes Medical, Florida) using the Affymetrix 417 Microarrayer (Affymetrix, Santa Clara, Calif.). Each sample was spotted in triplicate, with a spot size of 150 μm in diameter. Spotted microarrays were stored at 4° C. until use. Before use, microarrays were blocked with 3% non-fat dry milk in PBS buffer for 1 hour at room temperature, and individual slides were thereafter incubated with diluted antibody samples (rabbit sera 1:250, murine anti-PDC monoclonal antibody 1:1) in 1 ml of blocking buffer (3% non-fat dry milk in PBS with 0.05% tween-20) (PBST) for 1 hour at room temperature. After thorough washes with PBST, 1 ml of the Cy3 conjugated secondary antibody (1 μg/ml) (Zymed Laboratories Inc. San Francisco, Calif.) in blocking buffer was added to each slide and incubated at room temperature for 30 min. Subsequently slides were washed in PBST for 10 min and in water for 15 sec. […] Mixtures of xenobiotics and agarose were also spotted and analyzed as controls. […]

[2] = system: rabbit sera IgG; experiment: microarray assay of rabbit sera IgG reactivity to small molecule-peptide-agarose conjugates; details: sera (n=5) one month post-immunization, serially diluted; dilution of 1:6750 or lower; on PDC-E2 peptide
Procedure: as §1, with “min.” for “min. Subsequently slides were washed in PBST for 10 min and in water for 15 sec.”
Comparison between ELISA and microarray assay. Rabbit sera (n=5) at one month post-immunization were serially diluted (1:250, 1:750, 1:2250, 1:6750 and 1:20250) and IgG reactivity to small molecule-peptide-agarose conjugates were determined by both the ELISA and microarray assay. […] Likewise, IgG reactivity of rabbit sera at 0, 1, 6, 12 and 22 months post-immunization against recombinant human PDC-E2 protein (see Leung, P. S. et al. J. Immunol. 2003, 170:5326) and KLH (Sigma, St. Louis, Mo.) was determined at 1:100 sera dilution by standard ELISA.
Validation of peptide microarray assay. […] Rabbit sera (n=5) at one month post-immunization with human recombinant PDC-E2 were serially diluted and their IgG reactivity against 6-bromohexanoate, compound 9, lipoic acid on PDC-E2 peptide and non-lipoylated native PDC-E2 peptide were determined by both ELISA and microarray assay (FIG. 13). […]

[3] = system: rabbit sera IgG; experiment: ELISA of rabbit sera IgG reactivity to small molecule-peptide-agarose conjugates; details: sera (n=5) one month post-immunization, serially diluted; dilution of 1:6750 or lower; on PDC-E2 peptide
Procedure: Comparison between ELISA and microarray assay. Rabbit sera (n=5) at one month post-immunization were serially diluted (1:250, 1:750, 1:2250, 1:6750 and 1:20250) and IgG reactivity to small molecule-peptide-agarose conjugates were determined by both the ELISA and microarray assay. Briefly, ELISA plates were coated with 50 μl of each individual xenobiotic compounds-peptide-agarose mixture in DMSO (1 mg/ml) for 2 hours at room temperature, then antigens were removed and plates dried overnight at room temperature. Dried ELISA plates were thereafter blocked with 3% non-fat dry milk in PBS and incubated with serially diluted rabbit sera for 1 hour at room temperature. After washing, the plates were incubated with HRP conjugated mouse anti-rabbit IgG (Zymed, San Francisco, Calif.) antibodies for 30 min at room temperature, washed and incubated with 2,2′-azino-bis(3-ethylbenzthiazoline-6-sulfonic acid) containing hydrogen peroxide (Kirkegaard & Perry Laboratories, Inc, MD). Likewise, IgG reactivity of rabbit sera at 0, 1, 6, 12 and 22 months post-immunization against recombinant human PDC-E2 protein (see Leung, P. S. et al. J. Immunol. 2003, 170:5326) and KLH (Sigma, St. Louis, Mo.) was determined at 1:100 sera dilution by standard ELISA.
Validation of peptide microarray assay. To validate the microarray assay, data obtained using the microarray and ELISA were compared. Rabbit sera (n=5) at one month post-immunization with human recombinant PDC-E2 were serially diluted and their IgG reactivity against 6-bromohexanoate, compound 9, lipoic acid on PDC-E2 peptide and non-lipoylated native PDC-E2 peptide were determined by both ELISA and microarray assay (FIG. 13). […] To validate the sensitivity of the microarray, four different concentrations (0.1%, 0.03%, 0.01% and 0.004%) of HA peptide ([…]) were spotted. Individual arrays were incubated with murine monoclonal anti-HA antibody or normal murine IgG followed by secondary antibody (goat anti-murine IgG) conjugated to Cy3.

[4] = system: murine monoclonal anti-HA antibody; experiment: HA peptide microarray sensitivity validation with anti-HA monoclonal antibody

Row | Compound | reactivity of mAb 2H4 [1] | rabbit sera IgG reactivity, microarray assay [2] | rabbit sera IgG reactivity, ELISA [3] | anti-HA antibody concentration giving dose dependent response ([4]; HA peptide spotted at 0.1%, 0.03%, 0.01%) | anti-HA antibody concentration required ([4]; lowest concentration of HA (0.004%))
1 | O=C(O)CCCC[C@@H]1CCSS1 (racemic) [lipoic acid] | bound strongly | dilution dependent response | dilution dependent response |  | 
2 | DKATIGFEVQEE [non-lipoylated native PDC peptide, 12 mer PDC-E2 peptide on agarose, without xenobiotic or lipoic acid] | Weak reactivity | dilution dependent response | dilution dependent response |  | 
3 | O=C(O)CCCCCBr [6-bromohexanoate] | bound strongly | dilution dependent response | dilution dependent response |  | 
4 | YPYDVPDYA [HA peptide] |  |  |  | ≥ 5 ng/mL | > 50 ng/mL
